Read-outs that look alike come from different tables or passages of the source.

Some targets named below: SLK (Homo sapiens, UniProt Q9H2G2); BRAF(V600E) (Homo sapiens, UniProt P15056, V600E); PIK3CA(E545K) (Homo sapiens, UniProt P42336, E545K); SRPK1 (Homo sapiens, UniProt Q96SB4); CIT (Homo sapiens, UniProt O14578); MYO3A (Homo sapiens, UniProt Q8NEV4); CAMK2D (Homo sapiens, UniProt Q13557); RET(M918T) (Homo sapiens, UniProt P07949, M918T).
Assay in all cases: biochemical
What all share (parameters): DiscoveRx KINOMEscan active site-directed competition binding; percent of control kinase bound to immobilised ligand

The target in test [1] is T1, RSK3(Kin.Dom.2-C-terminal) (Homo sapiens, UniProt Q15349).
T1 construct: gene RPS6KA2; Kin.Dom.2-C-terminal

Another test deals with T2, AURKA (Homo sapiens, UniProt O14965).
T2 sequence (O14965 1-403): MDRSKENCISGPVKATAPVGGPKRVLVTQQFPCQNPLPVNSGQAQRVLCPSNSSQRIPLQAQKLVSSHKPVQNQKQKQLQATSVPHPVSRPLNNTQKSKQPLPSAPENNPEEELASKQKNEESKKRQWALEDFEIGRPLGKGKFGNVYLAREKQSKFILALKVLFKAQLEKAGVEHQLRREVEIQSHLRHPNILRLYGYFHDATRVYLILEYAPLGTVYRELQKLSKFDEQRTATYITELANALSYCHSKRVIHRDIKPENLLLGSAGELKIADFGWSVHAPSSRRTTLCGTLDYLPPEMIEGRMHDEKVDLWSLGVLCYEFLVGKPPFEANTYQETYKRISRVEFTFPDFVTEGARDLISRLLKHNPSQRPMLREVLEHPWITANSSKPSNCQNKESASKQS

In test [2] the target is T3, ABL1(T315I)-nonphosphorylated (Homo sapiens, UniProt P00519, T315I).
T3 construct: nonphosphorylated

Test [3] deals with T4, ABL1(F317I)-nonphosphorylated (Homo sapiens, UniProt P00519, F317I).
T4 construct: nonphosphorylated

A further test deals with T5, LOK (Homo sapiens, UniProt O94804).
T5 construct: gene STK10

The target in the next test is T6, PRKCI (Homo sapiens, UniProt P41743).
T6 sequence (P41743 1-596): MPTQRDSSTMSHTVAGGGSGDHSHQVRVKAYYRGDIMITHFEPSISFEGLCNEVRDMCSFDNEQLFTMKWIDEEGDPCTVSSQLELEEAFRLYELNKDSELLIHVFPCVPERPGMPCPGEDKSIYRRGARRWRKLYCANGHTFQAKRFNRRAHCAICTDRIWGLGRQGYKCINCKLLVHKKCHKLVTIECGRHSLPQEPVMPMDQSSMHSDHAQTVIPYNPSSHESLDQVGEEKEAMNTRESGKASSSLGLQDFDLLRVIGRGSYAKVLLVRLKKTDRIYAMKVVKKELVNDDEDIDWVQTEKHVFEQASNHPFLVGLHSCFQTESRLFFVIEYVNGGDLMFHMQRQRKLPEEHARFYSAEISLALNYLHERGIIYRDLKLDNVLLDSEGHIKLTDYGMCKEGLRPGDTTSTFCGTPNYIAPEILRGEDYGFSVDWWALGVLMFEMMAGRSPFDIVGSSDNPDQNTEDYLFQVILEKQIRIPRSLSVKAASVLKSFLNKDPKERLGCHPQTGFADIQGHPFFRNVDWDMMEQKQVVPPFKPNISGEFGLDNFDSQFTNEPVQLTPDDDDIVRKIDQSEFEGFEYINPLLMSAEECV

Another test has as its target T7, p38-alpha (Homo sapiens, UniProt Q16539).
T7 construct: gene MAPK14

Another test concerns the target T8, PRP4 (Homo sapiens, UniProt Q13523).
T8 construct: gene PRPF4B

The target of a further test is T9, MEK1 (Homo sapiens, UniProt Q02750).
T9 construct: gene MAP2K1

Setting [4] is: read-out: Niraparib (MK-4827) / %Ctrl @ 10000nM.
[5] abbreviates: read-out: Olaparib / %Ctrl @ 10000nM.
Where [6] appears, read: read-out: Rucaparib / %Ctrl @ 10000nM, binding competition, % of control.
The mark [7] stands for this setting: read-out: Talazoparib (BMN 673) / %Ctrl @ 10000nM.

BRAF(V600E), sequence (P15056 whole entry V600E): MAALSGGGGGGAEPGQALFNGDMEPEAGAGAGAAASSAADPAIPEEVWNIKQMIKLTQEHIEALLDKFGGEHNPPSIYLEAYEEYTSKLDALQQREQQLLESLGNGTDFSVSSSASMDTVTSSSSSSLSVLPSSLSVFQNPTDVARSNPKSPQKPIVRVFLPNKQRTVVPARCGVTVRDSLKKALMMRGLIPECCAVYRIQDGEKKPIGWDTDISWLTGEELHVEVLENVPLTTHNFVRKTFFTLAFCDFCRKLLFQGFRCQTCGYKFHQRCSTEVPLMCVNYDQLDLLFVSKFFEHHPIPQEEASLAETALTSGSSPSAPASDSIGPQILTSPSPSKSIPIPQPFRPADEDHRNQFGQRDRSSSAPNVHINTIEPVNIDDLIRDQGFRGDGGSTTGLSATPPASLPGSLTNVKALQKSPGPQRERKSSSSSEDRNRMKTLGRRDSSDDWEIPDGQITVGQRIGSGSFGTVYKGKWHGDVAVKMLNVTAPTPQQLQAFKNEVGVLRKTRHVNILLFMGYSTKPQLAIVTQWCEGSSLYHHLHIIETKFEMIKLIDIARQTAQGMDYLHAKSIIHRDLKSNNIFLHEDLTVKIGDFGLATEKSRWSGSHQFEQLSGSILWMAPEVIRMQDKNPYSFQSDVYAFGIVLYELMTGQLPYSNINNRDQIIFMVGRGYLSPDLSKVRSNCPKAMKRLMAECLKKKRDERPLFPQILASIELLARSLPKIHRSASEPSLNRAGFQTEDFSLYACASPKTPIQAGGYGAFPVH
SLK, sequence (Q9H2G2 whole entry): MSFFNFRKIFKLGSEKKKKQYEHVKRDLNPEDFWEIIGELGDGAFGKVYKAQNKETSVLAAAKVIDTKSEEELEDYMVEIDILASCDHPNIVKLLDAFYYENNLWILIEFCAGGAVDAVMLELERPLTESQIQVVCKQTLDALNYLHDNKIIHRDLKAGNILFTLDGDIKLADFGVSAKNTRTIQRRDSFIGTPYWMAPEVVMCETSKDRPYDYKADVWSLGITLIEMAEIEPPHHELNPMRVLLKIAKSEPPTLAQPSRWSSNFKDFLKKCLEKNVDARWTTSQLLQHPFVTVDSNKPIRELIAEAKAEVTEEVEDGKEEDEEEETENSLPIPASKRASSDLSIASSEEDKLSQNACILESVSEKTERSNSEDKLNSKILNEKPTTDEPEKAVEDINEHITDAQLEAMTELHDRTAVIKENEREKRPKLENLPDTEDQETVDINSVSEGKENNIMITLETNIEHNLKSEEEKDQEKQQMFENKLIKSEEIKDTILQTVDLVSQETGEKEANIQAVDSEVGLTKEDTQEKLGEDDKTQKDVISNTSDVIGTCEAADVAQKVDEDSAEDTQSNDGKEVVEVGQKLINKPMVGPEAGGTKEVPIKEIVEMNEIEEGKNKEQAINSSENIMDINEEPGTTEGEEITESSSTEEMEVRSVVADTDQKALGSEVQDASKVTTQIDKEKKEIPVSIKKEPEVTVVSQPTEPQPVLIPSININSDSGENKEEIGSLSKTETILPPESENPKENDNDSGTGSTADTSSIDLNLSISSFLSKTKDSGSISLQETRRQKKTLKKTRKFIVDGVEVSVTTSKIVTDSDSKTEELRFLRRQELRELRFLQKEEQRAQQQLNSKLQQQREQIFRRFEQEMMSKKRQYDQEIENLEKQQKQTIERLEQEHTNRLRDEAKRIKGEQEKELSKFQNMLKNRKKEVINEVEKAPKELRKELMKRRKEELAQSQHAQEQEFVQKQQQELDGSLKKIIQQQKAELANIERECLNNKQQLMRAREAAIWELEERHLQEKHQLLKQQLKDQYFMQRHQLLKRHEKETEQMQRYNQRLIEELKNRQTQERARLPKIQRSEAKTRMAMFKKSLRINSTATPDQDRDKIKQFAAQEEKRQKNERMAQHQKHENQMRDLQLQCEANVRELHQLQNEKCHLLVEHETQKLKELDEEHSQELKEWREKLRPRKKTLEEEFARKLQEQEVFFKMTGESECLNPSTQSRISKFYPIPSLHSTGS
T9 sequence (Q02750 whole entry): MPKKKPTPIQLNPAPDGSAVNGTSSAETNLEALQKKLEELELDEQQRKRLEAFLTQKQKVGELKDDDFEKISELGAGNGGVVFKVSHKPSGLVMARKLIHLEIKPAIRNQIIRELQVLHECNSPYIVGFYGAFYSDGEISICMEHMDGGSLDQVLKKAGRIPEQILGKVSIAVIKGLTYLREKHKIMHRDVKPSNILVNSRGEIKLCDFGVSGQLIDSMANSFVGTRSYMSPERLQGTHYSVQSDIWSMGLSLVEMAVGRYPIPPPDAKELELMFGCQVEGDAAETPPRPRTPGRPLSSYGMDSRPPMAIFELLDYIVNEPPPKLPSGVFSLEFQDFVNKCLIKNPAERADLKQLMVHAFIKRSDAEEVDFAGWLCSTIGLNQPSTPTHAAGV
T5 sequence (O94804 whole entry): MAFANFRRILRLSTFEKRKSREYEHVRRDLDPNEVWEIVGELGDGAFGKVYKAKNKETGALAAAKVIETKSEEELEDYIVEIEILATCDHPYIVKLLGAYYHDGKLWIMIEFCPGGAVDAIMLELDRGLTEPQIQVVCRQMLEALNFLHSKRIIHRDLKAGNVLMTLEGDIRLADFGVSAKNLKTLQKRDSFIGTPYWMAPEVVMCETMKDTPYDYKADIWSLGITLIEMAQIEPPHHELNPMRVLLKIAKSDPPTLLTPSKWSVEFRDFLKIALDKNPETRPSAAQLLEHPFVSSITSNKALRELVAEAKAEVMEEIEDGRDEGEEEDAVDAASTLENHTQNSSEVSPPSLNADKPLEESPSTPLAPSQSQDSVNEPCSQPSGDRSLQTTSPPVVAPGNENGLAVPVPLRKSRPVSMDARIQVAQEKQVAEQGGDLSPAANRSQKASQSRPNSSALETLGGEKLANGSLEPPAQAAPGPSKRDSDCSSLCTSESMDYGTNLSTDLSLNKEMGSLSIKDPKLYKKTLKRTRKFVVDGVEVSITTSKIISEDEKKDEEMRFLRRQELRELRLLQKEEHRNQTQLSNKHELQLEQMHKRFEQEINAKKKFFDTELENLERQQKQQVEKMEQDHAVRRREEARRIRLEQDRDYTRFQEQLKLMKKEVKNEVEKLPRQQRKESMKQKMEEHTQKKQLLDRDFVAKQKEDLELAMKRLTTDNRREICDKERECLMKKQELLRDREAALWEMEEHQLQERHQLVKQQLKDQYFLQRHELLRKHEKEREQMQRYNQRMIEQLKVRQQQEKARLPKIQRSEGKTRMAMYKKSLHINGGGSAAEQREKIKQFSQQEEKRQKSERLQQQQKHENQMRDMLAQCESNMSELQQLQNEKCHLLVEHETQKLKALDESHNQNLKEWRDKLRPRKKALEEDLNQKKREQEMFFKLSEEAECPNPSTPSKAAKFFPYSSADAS
MYO3A, sequence (Q8NEV4 whole entry): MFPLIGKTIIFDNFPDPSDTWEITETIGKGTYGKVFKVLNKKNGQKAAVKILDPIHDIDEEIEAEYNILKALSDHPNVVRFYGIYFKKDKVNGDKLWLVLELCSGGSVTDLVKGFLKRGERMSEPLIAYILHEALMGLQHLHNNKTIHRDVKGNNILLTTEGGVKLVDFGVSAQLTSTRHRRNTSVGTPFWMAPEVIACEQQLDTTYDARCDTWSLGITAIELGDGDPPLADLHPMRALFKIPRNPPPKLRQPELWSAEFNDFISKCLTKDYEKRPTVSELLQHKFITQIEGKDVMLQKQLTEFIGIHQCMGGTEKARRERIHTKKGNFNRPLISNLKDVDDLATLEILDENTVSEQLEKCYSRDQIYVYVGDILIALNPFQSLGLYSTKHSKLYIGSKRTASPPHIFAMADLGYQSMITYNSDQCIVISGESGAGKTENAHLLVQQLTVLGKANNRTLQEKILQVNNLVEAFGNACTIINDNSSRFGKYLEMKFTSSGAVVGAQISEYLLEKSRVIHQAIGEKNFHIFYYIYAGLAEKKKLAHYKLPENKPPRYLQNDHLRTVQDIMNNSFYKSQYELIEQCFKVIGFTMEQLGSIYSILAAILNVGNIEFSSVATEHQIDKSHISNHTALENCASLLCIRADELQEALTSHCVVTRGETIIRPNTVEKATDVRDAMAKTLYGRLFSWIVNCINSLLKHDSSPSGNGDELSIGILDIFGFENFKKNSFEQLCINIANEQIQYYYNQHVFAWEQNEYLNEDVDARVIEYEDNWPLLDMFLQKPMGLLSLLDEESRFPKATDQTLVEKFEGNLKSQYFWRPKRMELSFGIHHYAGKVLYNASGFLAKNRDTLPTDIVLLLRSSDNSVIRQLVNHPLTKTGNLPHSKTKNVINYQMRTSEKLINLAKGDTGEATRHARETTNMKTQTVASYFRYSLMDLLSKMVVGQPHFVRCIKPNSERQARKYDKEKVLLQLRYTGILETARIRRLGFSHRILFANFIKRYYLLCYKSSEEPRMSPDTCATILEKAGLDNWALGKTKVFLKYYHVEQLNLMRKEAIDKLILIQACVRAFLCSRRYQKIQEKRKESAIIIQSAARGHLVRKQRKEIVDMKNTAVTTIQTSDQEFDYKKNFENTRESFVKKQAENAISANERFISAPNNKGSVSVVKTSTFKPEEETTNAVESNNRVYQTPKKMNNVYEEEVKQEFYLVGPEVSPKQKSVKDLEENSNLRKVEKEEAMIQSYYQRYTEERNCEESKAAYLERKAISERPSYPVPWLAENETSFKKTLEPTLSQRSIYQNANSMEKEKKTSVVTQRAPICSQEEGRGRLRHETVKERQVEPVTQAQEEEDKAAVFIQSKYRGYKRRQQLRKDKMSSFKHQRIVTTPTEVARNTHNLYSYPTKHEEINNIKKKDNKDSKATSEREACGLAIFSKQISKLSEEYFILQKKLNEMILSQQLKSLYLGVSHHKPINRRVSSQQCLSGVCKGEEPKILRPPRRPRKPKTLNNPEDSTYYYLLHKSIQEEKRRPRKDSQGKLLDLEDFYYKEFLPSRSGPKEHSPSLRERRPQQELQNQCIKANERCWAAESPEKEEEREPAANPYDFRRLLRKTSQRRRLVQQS

For `NC(=O)c1cccc2cn(-c3ccc([C@@H]4CCCNC4)cc3)nc12` [Niraparib], the percent of control binding at 10 µM was 93% in [1] (setting [4]); 25% on AURKA (setting [4]); 90% in test [2] (setting [4]); 86% in [3] (setting [4]); 92% at SLK (setting [4]); 100% at BRAF(V600E) (setting [4]). Besides, the percent of control binding at 10 µM at PIK3CA(E545K) (setting [4]) came out at 95%; on LOK (setting [4]) it was 86%; at PRKCI (setting [4]) it was 85%; on p38-alpha (setting [4]) it was 95%; on SRPK1 (setting [4]) it was 77%; at PRP4 (setting [4]), 97%. For the same molecule, the percent of control binding at 10 µM was determined as 10% at CIT (setting [4]); 72% on MYO3A (setting [4]); 79% on MEK1 (setting [4]); 99% at CAMK2D (setting [4]); 95% at RET(M918T) (setting [4]).

As for `O=C(c1cc(Cc2n[nH]c(=O)c3ccccc23)ccc1F)N1CCN(C(=O)C2CC2)CC1` [Olaparib], the percent of control binding at 10 µM stood at 70% in [1] (setting [5]); 91% at AURKA (setting [5]); 79% in [2] (setting [5]); 66% in [3] (setting [5]); 100% at SLK (setting [5]); 87% on BRAF(V600E) (setting [5]). In addition, the percent of control binding at 10 µM worked out at 86% on PIK3CA(E545K) (setting [5]); 96% on LOK (setting [5]); 100% at PRKCI (setting [5]); 100% on p38-alpha (setting [5]); 98% at SRPK1 (setting [5]); 82% at PRP4 (setting [5]). Also, the percent of control binding at 10 µM at CIT (setting [5]) was found to be 87%; at MYO3A (setting [5]), 100%; on MEK1 (setting [5]), 79%; at CAMK2D (setting [5]) it was 99%; on RET(M918T) (setting [5]), 100%.

As for `CNCc1ccc(-c2[nH]c3cc(F)cc4c3c2CCNC4=O)cc1` [Rucaparib], the percent of control binding at 10 µM in test [1] (setting [6]) was found to be 67%; on AURKA (setting [6]), 75%; in test [2] (setting [6]), 72%; in [3] (setting [6]) it was 71%; on SLK (setting [6]), 98%; on BRAF(V600E) (setting [6]), 73%. For the same molecule, the percent of control binding at 10 µM amounted to 79% at PIK3CA(E545K) (setting [6]); 100% at LOK (setting [6]); 72% on PRKCI (setting [6]); 90% at p38-alpha (setting [6]); 97% on SRPK1 (setting [6]); 85% on PRP4 (setting [6]). In addition, the percent of control binding at 10 µM on CIT (setting [6]) amounted to 4.8%; on MYO3A (setting [6]), 42%; on MEK1 (setting [6]) it was 69%; on CAMK2D (setting [6]), 89%; on RET(M918T) (setting [6]) it was 97%.

On to `Cn1ncnc1[C@H]1c2n[nH]c(=O)c3cc(F)cc(c23)N[C@@H]1c1ccc(F)cc1` [Talazoparib], for which the percent of control binding at 10 µM in test [1] (setting [7]) was 100%; on AURKA (setting [7]), 84%; in test [2] (setting [7]), 75%; in test [3] (setting [7]) it was 96%; on SLK (setting [7]), 90%; on BRAF(V600E) (setting [7]) it was 68%. Further, the percent of control binding at 10 µM at PIK3CA(E545K) (setting [7]) came to 56%; at LOK (setting [7]) it was 100%; on PRKCI (setting [7]), 78%; on p38-alpha (setting [7]), 83%; at SRPK1 (setting [7]) it was 100%; on PRP4 (setting [7]), 100%. For the same molecule, the percent of control binding at 10 µM turned out to be 98% at CIT (setting [7]); 83% on MYO3A (setting [7]); 67% at MEK1 (setting [7]); 99% at CAMK2D (setting [7]); 96% on RET(M918T) (setting [7]).

The values are drawn from paper PMC7026418, “The kinase polypharmacology landscape of clinical PARP inhibitors” (Scientific Reports, 2020).
